Literature values in patent US6972278B2, “Laundry detergent gel with suspended particles” (Unilever Home & Personal Care USA division of Conopco, Inc., priority 2004, dated 2005).

conditions: by fatty acid chain length; cited from Langmuir, Vol 16, pp 172-177, 2000

SMILES	Measured pKa value
CCCCCCCC(=O)O [Example 8]	6.3~6.5
CCCCCCCCCC(=O)O [Example 10]	7.1~7.3

Continued, values first:

Measured pKa value	SMILES
~7.5	CCCCCCCCCCCC(=O)O [Example 12]
8.1~8.2	CCCCCCCCCCCCCC(=O)O [Example 14]
8.6~8.8	CCCCCCCCCCCCCCCC(=O)O [Example 16]

same assay, conditions: by fatty acid chain length; cited from Proc. R. Soc. London, A133, 140, 1931

Measured pKa value	SMILES
8.5	CCCCCCCCCCCCCCCC(=O)O [Example 16]
